According to US10934332B2, “Structure-based peptide inhibitors that target the Tau VQIINK fibrillization segment” (THE REGENTS OF THE UNIVERSITY OF CALIFORNIA, priority 2017, dated 2021):
Where two headings read alike, the source gives them in different places. No end group written: not given here.

What was measured:
[1] = test system: Full-length Tau-YFP biosensor cells seeded with pre-formed Tau40 fibers; assay type: cell-based, human; conditions: for inhibition of seeding by pre-formed Tau40 fibers (in words): pre-formed Tau40 fibrils incubated with inhibitor before applying to biosensor cells
Description: To test whether VQIINK (SEQ ID NO: 11) inhibitors can cap pre-formed fibers to block their spread, Tau40 amyloid fibrils were incubated with varying concentrations of inhibitor before applying to biosensor cells and measuring seeding. In addition, a third VQIINK (SEQ ID NO: 11) inhibitor, RINK which contains an Arg at position 4, was also tested.
(§1) Engineered HEK293 cell lines stably expressing Tau40-YFP P301S, referred to as “tau biosensor cells” were engineered by Marc Diamond's lab at UTSW. Cells were maintained in DMEM (Life Technologies, cat. 11965092) supplemented with 10% (vol/vol) FBS (Life Technologies, cat. A3160401), 1% penicillin/streptomycin (Life Technologies, cat. 15140122), and 1% Glutamax (Life Technologies, cat. 35050061) at 37° C., 5% CO2 in a humidified incubator. Tau40 aggregates were prepared in PBS (pH 7.4) with 1 mM DTT by shaking 25 μM Tau40 with 0.5 mg/ml heparin in the presence or absence inhibitor peptide, as indicated. Fibers were sonicated in a cuphorn water bath for 3 minutes before seeding cells. For seeding, fibers were diluted in OptiMEM (Life Technologies, cat. 31985070) and transfected using Lipofectamine 2000 (Life Technologies, cat. 11668027) according to the manufacturer's instructions. After seeding, cells were imaged using a ZEISS Axio Observer D1 fluorescence microscope using the YFP fluorescence channel and Tau aggregates were counted in ImageJ software.

Tau40 = molecular target: T1, Tau40 (Homo sapiens, UniProt P10636); assay: ThT assay of Tau40 fibril formation; assay type: biochemical; conditions: heparin, shaking 700 rpm, 37° C.
T1 construct: Human Tau40 (residues 1-441) was expressed in pET28b; His-tag (C); made in house; host or cells: BL21-Gold E. coli
T1 sequence (P10636 1-441 isoform P10636-8): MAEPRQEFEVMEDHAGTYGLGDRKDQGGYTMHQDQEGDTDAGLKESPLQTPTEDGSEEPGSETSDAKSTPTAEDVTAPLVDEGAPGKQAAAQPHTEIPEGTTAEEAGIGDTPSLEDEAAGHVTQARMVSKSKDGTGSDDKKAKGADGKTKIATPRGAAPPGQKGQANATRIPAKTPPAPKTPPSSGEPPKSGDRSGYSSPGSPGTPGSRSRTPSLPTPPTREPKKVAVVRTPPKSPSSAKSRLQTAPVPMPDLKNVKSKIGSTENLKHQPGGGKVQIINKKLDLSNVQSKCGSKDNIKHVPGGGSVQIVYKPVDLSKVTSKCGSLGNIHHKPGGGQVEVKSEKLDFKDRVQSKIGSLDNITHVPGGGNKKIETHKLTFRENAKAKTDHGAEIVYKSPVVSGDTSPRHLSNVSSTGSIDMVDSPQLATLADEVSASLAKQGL
Description: The effect on fibril formation of Tau40 of the two resulting VQIINK (SEQ ID NO: 11) inhibitors, MINK (which contains a Met at position 4 to disrupt interface A) and WINK (which instead contains a Trp) was evaluated in vitro using a ThT assay.
Human Tau40 (residues 1-441) was expressed in pET28b with a C-terminal His-tag in BL21-Gold E. coli cells grown in TB to an OD600=0.8. Cells were induced with 0.5 mM IPTG for 3 hours at 37° C. and lysed by sonication in 50 mM Tris (pH 8.0) with 500 mM NaCl, 20 mM imidazole, 1 mM beta-mercaptoethanol, and HALT protease inhibitor. Cells were lysed by sonication, clarified by centrifugation at 15,000 rpm for 15 minutes, and passed over a 5 ml HisTrap affinity column. The column was washed with lysis buffer and eluted over a gradient of imidazole from 20 to 300 mM. Fractions containing purified Tau40 were dialyzed into 50 mM MES buffer (pH 6.0) with 50 mM NaCl and 1 mM beta-mercaptoethanol and purified by cation exchange as described for K18. Peak fractions were polished on a HiLoad 16/600 Superdex […] in 1×PBS (pH 7.4), and concentrated to ˜20-60 mg/ml by ultrafiltration using a 10 kDa cutoff.
Concentrated Tau protein was diluted into PBS buffer (pH 7.4) to a final concentration as indicated in the text. Proteins were shaken as solutions containing 75 μM ThT, 0.5 mg/ml heparin, 1 mM DTT, and a two-fold molar excess of inhibitor (when indicated) in 96-well plates with a plastic bead to enhance agitation. ThT fluorescence was measured with excitation and emission wavelengths of 440 and 480 nm, and averaged curves were generated from duplicate measurements.

[2] = test system: HEK293 biosensor cells stably expressing full-length Tau 4R1N P301S-EYFP; assay: Biosensor cell seeding with Tau40 fiber grown in the presence of inhibitor; assay type: cell-based, human; conditions: cells seeded with 125 nM Tau40 fiber grown with two-fold excess of inhibitor; about 61% in the absence of inhibitor
Text: Cells seeded with Tau40 fiber grown with MINK or WINK reduced the percentage of seeded cells to 23 and 41%, respectively.
as §1

[3] = 10 μM Tau40, two-fold mole excess of inhibitor
[4] = 25 μM Tau40, two-fold mole excess of inhibitor

Q: Which “inhibition of seeding by pre-formed Tau40 fibers (in words)” value (“inhibition of seeding” below) [1] does the source give for DVQRINKKRK here?
A: The value was “inhibited more poorly than MINK and WINK”.

Q: With “W-WINK: Phase 2 inhibitor: WINK incorporating a Trp steric clash at position 3 (DVWWINKKRK)” as the substance, how does the “inhibition of seeding” value [1] read?
A: The value was “performed more poorly than W-MINK”.

Q: With DVWMINKKRK [W-MINK, DVWMINKKRK] as the substance, how does the IC50 [1] read?
A: Its IC50 is 9 µM.

Q: And the “seeding by Tau40 fibers in biosensor cells (fluorescence images)” value ([1]; 5 μM inhibitor)?
A: Its value is “Tau40 fibers are still able to induce seeding”.

Q: And the “seeding by Tau40 fibers in biosensor cells (fluorescence images)” value ([1]; 25 μM inhibitor)?
A: Its value is “seeding by Tau40 fibers is no longer observed”.

Q: DVQMINKKRK [MINK, DVQMINKKRK] was tested. Which “Tau40 fibril formation (ThT fluorescence)” value (Tau40; [3]) did it give?
A: Its value is “completely inhibiting any detectable Tau40 fibril formation for at least 60 hours”.

Q: What about the “Tau40 fibril formation (ThT fluorescence)” value (Tau40; [4]) of the same substance?
A: Its value is “reduced Tau40 aggregation to about half”.

Q: What about the “percentage of seeded cells (cells with intracellular aggregates)” value [2] of the same substance?
A: Its value is 23%.

Q: What about the IC50 [1] of the same substance?
A: Its IC50 is 22 µM.

Q: What about the “inhibition of seeding” value [1] of the same substance?
A: Its value is “inhibit seeding by Tau40 fibers in a concentration dependent fashion”.

Q: What does the source list for DVQWINKKRK [WINK, DVQWINKKRK]?
A: Tau40 fibril formation (ThT fluorescence) (Tau40; [3]): reducing the amount of Tau40 aggregation to about half; Tau40 fibril formation (ThT fluorescence) (Tau40; [4]): reduced Tau40 aggregation to about half; percentage of seeded cells (cells with intracellular aggregates) [2]: 41%; IC50 [1]: 25 µM; inhibition of seeding by pre-formed Tau40 fibers (in words) [1]: inhibit seeding by Tau40 fibers in a concentration dependent fashion
